# In US20110045101A1, “FUNGICIDAL SUBSTITUTED AZOLES” (E.I. Du Pont De Nemours and Company, priority 2009, published 2011):
# Marks after values point to notes of the source that are not given here.
# What was measured:
# Format in all cases: in vivo
# [1] = test system: Puccinia recondita f. sp. tritici; experiment: Test H: wheat leaf rust, test suspension sprayed after inoculation of wheat seedlings, visual disease rating; conditions: 100 = 100% disease control; for pest or weed control at 200 ppm: Puccinia recondita, 96 h
# In short: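 Wheat seedlings inoculated with P. recondita spores, held 24 h saturated at 20 °C, then 2 days in growth chamber at 20 °C; compound suspension (acetone/water with Trem 014) sprayed to run-off afterwards. Rated visually; 200 ppm (≈500 g/ha) unless marked *, which denotes 40 ppm.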
# [2] = test system: Septoria nodorum; experiment: Test F: wheat glume blotch on wheat seedlings, sprayed the day before inoculation, visual disease rating; conditions: 100 = 100% disease control; for pest or weed control at 200 ppm: Parastagonospora nodorum, 264 h
# In short: (§1)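 Spray suspension: acetone 3% of final volume, then 50/50 acetone/water plus 250 ppm Trem® 014. Applied to run-off on seedlings at 200 ppm (≈500 g/ha); starred entries tested at 40 ppm.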
# [3] = test system: Septoria tritici; experiment: Test G: wheat leaf blotch on wheat seedlings, sprayed the day before inoculation, visual disease rating; conditions: 100 = 100% disease control; for pest or weed control at 200 ppm: Zymoseptoria tritici, 504 h
# In short: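 Visual disease ratings taken 19 days after transfer to a 20° C growth chamber, following 48 h in saturated atmosphere at 24° C. Seedlings had been sprayed to run-off one day before spore inoculation. Dose 200 ppm, or 40 ppm where starred.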
# [4] = test system: Botrytis cinerea; experiment: Test C: tomato Botrytis on tomato seedlings, sprayed the day before inoculation, visual disease rating; conditions: 100 = 100% disease control; for pest or weed control at 200 ppm: Botrytis cinerea, 120 h
# In short: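 Spray to run-off on tomato seedlings; test conc. 200 ppm (≈500 g/ha), some entries 40 ppm. Formulation: acetone 3% of final vol., then acetone/water 50:50 + 250 ppm polyhydric alcohol ester surfactant.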
# [5] = test system: Erysiphe graminis f. sp. tritici; experiment: Test J: wheat powdery mildew on wheat seedlings, sprayed the day before inoculation, visual disease rating; conditions: 100 = 100% disease control; for pest or weed control at 200 ppm: Blumeria graminis, 168 h
# In short: as §1
# [6] = test system: Alternaria solani; experiment: Test D: tomato early blight, sprayed the day before inoculation, visual disease rating; conditions: 100 = 100% disease control; for pest or weed control at 200 ppm: Alternaria solani, 168 h
# In short: as §1
# [7] = test system: Puccinia recondita f. sp. tritici; experiment: Test I: wheat leaf rust on wheat seedlings, sprayed the day before inoculation, visual disease rating; conditions: 100 = 100% disease control; for pest or weed control at 200 ppm: Puccinia recondita, 168 h
# In short: as §1
# [8] = 200 ppm, 0 = no control relative to controls
smiles,measurement,setting,value
COc1cc(F)c(-c2c(Br)nnn2-c2ccc(Cl)cc2)c(F)c1 [compound 627],Test H disease control rating,[1]; [8],40%
same,Test F disease control rating,[2]; [8],0%
same,Test G disease control rating,[3]; [8],99%
same,Test C disease control rating,[4]; [8],99%
same,Test J disease control rating,[5]; [8],98%
same,Test D disease control rating,[6]; [8],99%
same,Test I disease control rating,[7]; [8],95%
Fc1ccc(F)c(-c2c(Cl)ncn2Cc2ccc(Cl)cc2)c1F [compound 266],Test H disease control rating,"[1]; 200 ppm, 0 = no control",98%
same,Test F disease control rating,"[2]; 200 ppm, 0 = no control",97%
same,Test G disease control rating,"[3]; 200 ppm, 0 = no control",94%
same,Test C disease control rating,"[4]; 200 ppm, 0 = no control",100%
same,Test J disease control rating,"[5]; 200 ppm, 0 = no control",99%
same,Test D disease control rating,"[6]; 200 ppm, 0 = no control",100%
same,Test I disease control rating,"[7]; 200 ppm, 0 = no control",99%
COc1ccc(F)c(-c2c(Cl)ncn2-c2ccc(Br)cc2)c1F [compound 528],Test H disease control rating,[1]; [8],15%
same,Test F disease control rating,[2]; [8],99%
same,Test G disease control rating,[3]; [8],99%
same,Test C disease control rating,[4]; [8],100%
same,Test J disease control rating,[5]; [8],100%
same,Test D disease control rating,[6]; [8],100%
same,Test I disease control rating,[7]; [8],96%
COc1cc(F)c(-c2c(Cl)nc(Br)n2-c2cccc(Cl)c2)c(F)c1 [compound 483],Test H disease control rating,[1]; [8],32%
same,Test F disease control rating,[2]; [8],0%
same,Test G disease control rating,[3]; [8],94%
same,Test C disease control rating,[4]; [8],100%
same,Test J disease control rating,[5]; [8],100%
same,Test D disease control rating,[6]; [8],99%
same,Test I disease control rating,[7]; [8],98%
Cc1nc(Cl)n(-c2ccc(Cl)nc2)c1-c1c(F)cccc1F [compound 693],Test H disease control rating,[1]; [8],100%
same,Test F disease control rating,[2]; [8],99%
same,Test G disease control rating,[3]; [8],99%
same,Test C disease control rating,[4]; [8],100%
same,Test J disease control rating,[5]; [8],100%
same,Test D disease control rating,[6]; [8],100%
same,Test I disease control rating,[7]; [8],100%
COc1cc(F)c(-c2c(Cl)ncn2-c2cccc(Cl)c2)c(F)c1 [compound 497],Test H disease control rating,[1]; [8],0%
same,Test F disease control rating,[2]; [8],100%
same,Test G disease control rating,[3]; [8],97%
same,Test C disease control rating,[4]; [8],97%
same,Test J disease control rating,[5]; [8],100%
same,Test D disease control rating,[6]; [8],99%
same,Test I disease control rating,[7]; [8],100%
COc1ccc(F)c(-c2c(Br)nc(Cl)n2-c2ccc(F)cc2)c1F [compound 472],Test H disease control rating,[1]; [8],80%
same,Test F disease control rating,[2]; [8],100%
same,Test G disease control rating,[3]; [8],96%
same,Test C disease control rating,[4]; [8],100%
same,Test J disease control rating,[5]; [8],100%
same,Test D disease control rating,[6]; [8],100%
same,Test I disease control rating,[7]; [8],100%
Cc1nc(Cl)c(-c2ccc(Cl)cc2)n1-c1c(F)cc([N+](=O)[O-])cc1F [compound 708],Test H disease control rating,[1]; [8],7%
same,Test F disease control rating,[2]; [8],82%
same,Test G disease control rating,[3]; [8],99%
same,Test C disease control rating,[4]; [8],100%
same,Test J disease control rating,[5]; [8],89%
same,Test D disease control rating,[6]; [8],0%
same,Test I disease control rating,[7]; [8],80%
"C=Cc1nc(Cl)c(-c2c(F)ccc(OC)c2F)n1-c1cccc(OC(F)F)c1 [Compound 583, 4-chloro-1-[3-(difluoromethoxy)phenyl]-5-(2,6-difluoro-3-methoxyphenyl)-2-ethenyl-1H-imidazole]",pest or weed control at 200 ppm,[1]; [8],0%
same,pest or weed control at 200 ppm,[2]; [8],0%
same,pest or weed control at 200 ppm,[3]; [8],94%
same,pest or weed control at 200 ppm,[4]; [8],99%
same,pest or weed control at 200 ppm,[5]; [8],83%
same,pest or weed control at 200 ppm,[6]; [8],97%
same,pest or weed control at 200 ppm,[7]; [8],85%
Cc1nc(Cl)n(-c2c(F)cccc2F)c1-c1ccc(Cl)cc1 [compound 466],Test H disease control rating,[1]; 40 ppm (marked *),0* %
same,Test F disease control rating,[2]; 40 ppm (marked *),0* %
same,Test G disease control rating,[3]; 40 ppm (marked *),82* %
same,Test C disease control rating,[4]; 40 ppm (marked *),99* %
same,Test J disease control rating,[5]; 40 ppm (marked *),100* %
same,Test D disease control rating,[6]; 40 ppm (marked *),100* %
same,Test I disease control rating,[7]; 40 ppm (marked *),93* %
COc1ccc(-c2c(Cl)nc(Cl)n2-c2ccc(Cl)cc2Cl)cc1 [compound 698],Test H disease control rating,[1]; [8],0%
same,Test F disease control rating,[2]; [8],0%
same,Test G disease control rating,[3]; [8],99%
same,Test C disease control rating,[4]; [8],99%
same,Test J disease control rating,[5]; [8],56%
same,Test D disease control rating,[6]; [8],0%
same,Test I disease control rating,[7]; [8],83%
Fc1cc(-n2c(Cl)nc(CCl)c2-c2cccnc2Cl)ccc1Cl [compound 359],Test H disease control rating,[1]; [8],0%
same,Test F disease control rating,[2]; [8],0%
same,Test G disease control rating,[3]; [8],35%
same,Test C disease control rating,[4]; [8],98%
same,Test J disease control rating,[5]; [8],0%
same,Test D disease control rating,[6]; [8],0%
same,Test I disease control rating,[7]; [8],80%
"N#CCc1nc(Br)c(-c2c(F)cccc2F)n1-c1ccc(Cl)cc1 [Compound 509, 4-bromo-1-(4-chlorophenyl)-5-(2,6-difluorophenyl)-1H-imidazole-2-acetonitrile]",pest or weed control at 200 ppm,[1]; [8],9%
same,pest or weed control at 200 ppm,[2]; [8],0%
same,pest or weed control at 200 ppm,[3]; [8],92%
same,pest or weed control at 200 ppm,[4]; [8],98%
same,pest or weed control at 200 ppm,[5]; [8],78%
same,pest or weed control at 200 ppm,[6]; [8],77%
same,pest or weed control at 200 ppm,[7]; [8],85%
COc1cc(F)c(-c2c(Cl)nc(Cl)n2-c2ccc(NC(C)=O)nc2)c(F)c1 [compound 673],Test H disease control rating,[1]; [8],9%
same,Test F disease control rating,[2]; [8],99%
same,Test G disease control rating,[3]; [8],99%
same,Test C disease control rating,[4]; [8],99%
same,Test J disease control rating,[5]; [8],90%
same,Test D disease control rating,[6]; [8],100%
same,Test I disease control rating,[7]; [8],100%
Cc1nc(Cl)n(-c2ccc(Cl)nc2)c1-c1c(F)ccc(C#N)c1F [compound 716],Test H disease control rating,[1]; [8],100%
same,Test F disease control rating,[2]; [8],95%
same,Test G disease control rating,[3]; [8],100%
same,Test C disease control rating,[4]; [8],100%
same,Test J disease control rating,[5]; [8],99%
same,Test D disease control rating,[6]; [8],100%
same,Test I disease control rating,[7]; [8],99%
COc1cc(OC)c(Br)c(-n2cnc(Br)c2-c2ccc(Cl)cc2F)c1Cl [compound 642],Test H disease control rating,[1]; 40 ppm (marked *),0* %
same,Test F disease control rating,[2]; 40 ppm (marked *),0* %
same,Test G disease control rating,[3]; 40 ppm (marked *),94* %
same,Test C disease control rating,[4]; 40 ppm (marked *),97* %
same,Test J disease control rating,[5]; 40 ppm (marked *),56* %
same,Test D disease control rating,[6]; 40 ppm (marked *),0* %
same,Test I disease control rating,[7]; 40 ppm (marked *),98* %
CCOc1ccc(F)c(-c2c(Cl)nc(C)n2-c2ccc(Cl)cc2)c1F [compound 684],Test H disease control rating,[1]; [8],53%
same,Test F disease control rating,[2]; [8],100%
same,Test G disease control rating,[3]; [8],99%
same,Test C disease control rating,[4]; [8],100%
same,Test J disease control rating,[5]; [8],100%
same,Test D disease control rating,[6]; [8],100%
same,Test I disease control rating,[7]; [8],99%
COc1cc(F)c(-c2c(Cl)nc(Cl)n2-c2cccnc2Br)c(F)c1 [compound 576],Test H disease control rating,[1]; [8],100%
same,Test F disease control rating,[2]; [8],100%
same,Test G disease control rating,[3]; [8],100%
same,Test C disease control rating,[4]; [8],100%
same,Test J disease control rating,[5]; [8],99%
same,Test D disease control rating,[6]; [8],99%
same,Test I disease control rating,[7]; [8],100%
